Assay results as given in US9447447B2, “Method and apparatus for testing cardiotoxicity and evaluating cardiomyocytes” (National University Corporation Tokyo Medical and Dental …, priority 2010, dated 2016).

What was measured:
[1] = tested on: human ES cell-derived myocardial clusters
Excerpt: They were received in raw and recovered using a glass capillary (Vitrolife), cultured in a medium plus 20% inactivated FBS, 1% non-essential amino acids, 1% penicillin-streptomycin, and 0.2% β-mercaptoethanol in DMEM (all purchased from Invitrogen).
Collected clusters were then placed in a multi-electrode tip (Alfa Med Scientific). The day on which they were placed was set to Day 0. Clusters for which a 1st peak of an extracellular potential (FP) of 200 mV or more was acquired on Day 3 was used for data acquisition. A multi-electrode membrane potential measurement system (Nikkyo Technos Corp.) was used to acquire data.
Pre-agent application data (called ‘Before’) was acquired for 10 minutes before agent application. The agent was dissolved in deionized distilled water (DDW) or DMSO, and diluted in PBS before its application. […] Extracellular potential duration (FPD) and STV (short term variability) of the FPD was calculated from the acquired data.
A steep downward peak of the FP corresponds to the inflow of Na^+. A gradual upward peak corresponds to the outflow of K^+. The FPD was defined as the time between the Na^+ and K^+ peaks. In addition, the STV of the FPD was evaluated as the variation between beats of FPD. STV was calculated by the following equation.
[formula] The increase in the variation between the FPDs can be evaluated as an increase in the value of STV. […]

[2] = both in vivo and in vitro; cited from earlier work

CC(C)NCC(O)c1ccc(NS(C)(=O)=O)cc1 (racemic) [DL-sotalol]
position in two-dimensional plot (X: FPD score, FPD extended by 10% or more; Y: STV score, STV increased by 100% or more) [1]: upper right corner | known effect on APD and STV [2]: increase the APD and STV

COc1ccc([C@@H]2Sc3ccccc3N(CCN(C)C)C(=O)[C@@H]2OC(C)=O)cc1 [Diltiazem]
position in two-dimensional plot (X: FPD score, FPD extended by 10% or more; Y: STV score, STV increased by 100% or more) [1]: upper left corner
